Assay results from patent US20090221559A1 (priority 2005, published 2009).
pEC50, pIC50: −log10 of the molar value. Like-named read-outs stand apart in the source and are kept apart here.

Legend:
[1] = target: T1, HCV NS5B polymerase (His-tagged, C-terminal 21 amino acid deleted NS5B, HC-J4) (Hepatitis C virus genotype 1b, UniProt O92972); test: NS5b polymerase assay (biochemical RdRp assay, 3H-GTP incorporation, SPA beads); parameters: species or system HCV genotype 1b; settings: for IC50: NS5B Polymerase Assay IC50 (μM)
T1 construct: The cDNA encoding NS5B amino acid 1-570 (HC-J4, genotype 1b); His tag (His6, from pET-21b) (C); made in house; host or cells: E. coli BL21 (DE3)
In short: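 3H-GTP incorporation into newly made RNA was captured on SPA beads added in EDTA after 2 h at 25 °C. Compounds in DMSO met preformed enzyme–template complex (200 nM truncated His-NS5B, HC-J4 1b; biotin-oligo(rG13)/poly(rC)) for 15 min at RT, then 600 nM GTP, 5 mM MgCl2, Tris pH 7.5 started polymerization.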

[2] = tested on: HCV replicon RNA replication in Huh-7 luc/neo (Huh-Luc) cells; test: HCV replicon assay (stable replicon cell reporter assay, luciferase read-out); type: cell-based, HCV type 1b; settings: for EC50: read-out: Replicon Assay EC50 (μM), Huh-Luc cells, incubation of three days, luciferase activity
In short: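 Three-day compound exposure used Huh-Luc cells, which harbour an autonomously replicating genotype 1b NS3-NS5B replicon expressing luciferase and neo^R. Luciferase signal served as the replication read-out, and dose-response curves came from several concentrations per compound.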

[3] = 200 nM enzyme, 3H-GTP incorporation, 2 h at 25° C., read-out: NS5B Polymerase Assay IC50
[4] = Huh-Luc cells, three days incubation, luciferase activity, read-out: Replicon Assay EC50
[5] = NS5B Polymerase Assay IC50, 200 nM enzyme, 3H-GTP incorporation, 2 h at 25° C.
[6] = Hepatitis C virus, Huh-7, 72 h, read-out: Replicon Assay EC50, Huh-Luc cells, three days incubation, luciferase activity

T1 sequence (O92972 2417-3000, looked up, stated change not applied): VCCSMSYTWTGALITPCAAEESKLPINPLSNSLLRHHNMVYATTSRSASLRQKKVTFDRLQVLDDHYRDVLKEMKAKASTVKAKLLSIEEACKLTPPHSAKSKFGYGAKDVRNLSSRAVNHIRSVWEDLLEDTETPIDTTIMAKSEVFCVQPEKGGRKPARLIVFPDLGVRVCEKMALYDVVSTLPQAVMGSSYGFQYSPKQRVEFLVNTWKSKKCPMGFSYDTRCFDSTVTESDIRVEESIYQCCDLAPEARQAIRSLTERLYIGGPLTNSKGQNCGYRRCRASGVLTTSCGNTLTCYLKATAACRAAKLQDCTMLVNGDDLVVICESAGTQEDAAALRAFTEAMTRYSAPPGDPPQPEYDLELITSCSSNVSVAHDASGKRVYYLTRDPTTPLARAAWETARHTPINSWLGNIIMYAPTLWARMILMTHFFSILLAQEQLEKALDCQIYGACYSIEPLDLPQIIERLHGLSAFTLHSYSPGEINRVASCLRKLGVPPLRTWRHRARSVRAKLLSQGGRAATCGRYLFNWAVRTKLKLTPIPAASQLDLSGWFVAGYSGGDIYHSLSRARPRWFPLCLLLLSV

## CC1(C)CC(=O)C2=C(C1)Nc1ccccc1NC2c1cc(Cl)c(OCc2ccccc2)c(Cl)c1 (stereo not shown) [compound 444, 11-[4-benzyloxy-3,5-dichlorophenyl]-3,3-dimethyl-2,3,4,5,10,11-hexahydro-1H-dibenzo[b,e][1,4]diazepin-1-one]
[1]
  IC50: 33.2 µM
[2]; Hepatitis C virus, Huh-7, 72 h
  EC50: 4.45 µM

## COc1ccc(C2CC(=O)C3=C(C2)Nc2ccccc2N(C(=O)C(F)(F)F)C3c2ccc(C)cc2)cc1 (mixture of isomers) [compound 196]
[1]; [3]
  pIC50: < 4.48
[2]; [4]
  pEC50: 5.14

## CCn1c2ccccc2c2cc(C3Nc4cc(C)c(C)cc4NC4=C3C(=O)CC(C)(C)C4)ccc21 (stereo not shown) [compound 504]
[1]
  IC50: 39.1 µM
[2]; Hepatitis C virus, Huh-7, 72 h
  EC50: 17.1 µM

## O=C1CC(c2ccc(Cl)cc2)CC2=C1C(c1cccc([N+](=O)[O-])c1)N(C(=O)C(F)(F)F)c1ccccc1N2 (mixture of isomers) [compound 202]
[1]; [3]
  pIC50: < 4.48
[2]; [4]
  pEC50: 5.01

## CC(C)c1ccc(C2Nc3ccccc3NC3=C2C(=O)CC(c2ccccc2)C3)cc1 (stereo not shown) [compound 367]
[1]
  IC50: > 42.7 µM
[2]; Hepatitis C virus, Huh-7, 72 h
  EC50: 24.6 µM

## CC1(C)CC(=O)C2=C(C1)Nc1ccccc1NC2c1cccc(OCc2ccccc2)c1 (stereo not shown) [compound 437, 11-(3-benzyloxyphenyl)-3,3-dimethyl-2,3,4,5,10,11-hexahydro-1H-dibenzo[b,e][1,4]diazepin-1-one]
[1]
  IC50: 32.9 µM
[2]; Hepatitis C virus, Huh-7, 72 h
  EC50: 6.35 µM

## CCCCCC(=O)N1c2ccccc2NC2=C(C(=O)CC(C)(C)C2)C1c1ccc(OC(C)C)cc1 (stereo not shown) [compound 83]
[1]; [5]
  pIC50: < 4.37
[2]; [6]
  pEC50: 5.38

## COc1ccc(C2C3=C(CC(c4cccs4)CC3=O)Nc3ccccc3N2C(=O)Nc2ccc(Cl)c(Cl)c2)cc1 (stereo not shown) [compound 287]
[1]; [5]
  pIC50: < 4.48
[2]; [6]
  pEC50: 5.30

## CC1(C)CC(=O)C2=C(C1)Nc1ccccc1N(C(=O)c1ccccc1)C2c1ccc(Cl)cc1 (stereo not shown) [compound 88]
[1]; [5]
  pIC50: 4.73
[2]; [6]
  pEC50: 5.21

## O=C1CC(c2ccccc2OCc2ccccc2)CC2=C1C(c1ccc(Cl)cc1Cl)Nc1ccccc1N2 (single isomer, unassigned) [compound 417, 3-(2-Benzyloxyphenyl)-11-(2,4-dichlorophenyl)-2,3,4,5,10,11-hexahydro-dibenzo[b,e][1,4]diazepin-1-one]
[1]; read-out: NS5B Polymerase Assay IC50
  pIC50: < 4.37
[2]; read-out: Replicon Assay EC50, Huh-Luc cells, incubation of three days, luciferase activity
  pEC50: 5.08

## Cc1ccc(C2CC(=O)C3=C(C2)Nc2ccccc2NC3c2ccccc2Cl)cc1 (stereo not shown) [compound 411]
[1]
  IC50: > 33.3 µM
[2]; Hepatitis C virus, Huh-7, 72 h
  EC50: 17.9 µM

## Cc1ccc(C2Nc3ccccc3NC3=C2C(=O)CC(c2ccc(Cl)cc2)C3)cc1 (stereo not shown) [compound 409]
[1]
  IC50: > 33.3 µM
[2]; Hepatitis C virus, Huh-7, 72 h
  EC50: 14.9 µM

## COc1ccc(C2CC(=O)C3=C(C2)Nc2ccccc2N(C(C)=O)C3c2ccc(Cl)cc2)cc1 (stereo not shown) [compound 165]
[1]; [3]
  pIC50: < 4.48
[2]; [4]
  pEC50: 4.73

## CC(=O)N1c2ccccc2NC2=C(C(=O)CC(C)(C)C2)C1c1ccc(F)cc1F (stereo not shown) [compound 146, 10-acetyl-11-(2,4-difluorophenyl)-3,3-dimethyl-2,3,4,5,10,11-hexahydro-1H-dibenzo[b,e][1,4]diazepin-1-one]
[1]; [5]
  pIC50: 5.69
[2]; [6]
  pEC50: 4.62

## COc1ccc(C2CC(=O)C3=C(C2)Nc2ccccc2NC3c2cc(Br)c(OC)c(OC)c2)cc1 (stereo not shown) [compound 402]
[1]
  IC50: > 42.7 µM
[2]; Hepatitis C virus, Huh-7, 72 h
  EC50: 8.59 µM

## COc1ccc(C2CC(=O)C3=C(C2)Nc2ccccc2NC3c2cc(OC)c(OC)cc2OC)cc1 (stereo not shown) [compound 398]
[1]
  IC50: > 42.7 µM
[2]; Hepatitis C virus, Huh-7, 72 h
  EC50: 10.9 µM

## CN1c2ccccc2NC2=C(C(=O)CC(C)(C)C2)C1c1ccc(Cl)cc1Cl (stereo not shown) [compound 507, 11-(2,4-Dichlorophenyl)-2,3,4,5,10,11-hexahydro-3,3,10-trimethyl-1H-dibenzo[b,e][1,4]diazepin-1-one]
[1]
  IC50: > 42.7 µM
[2]; Hepatitis C virus, Huh-7, 72 h
  EC50: 4.63 µM

## CC1(C)CC(=O)C2=C(C1)Nc1ccccc1N(C(=O)c1ccccc1)C2c1ccccc1 (stereo not shown) [compound 92]
[1]; [5]
  pIC50: < 4.37
[2]; [6]
  pEC50: 4.76

## COc1ccc(C2CC(=O)C3=C(C2)Nc2ccccc2NC3c2ccc(OCc3ccccc3)cc2)cc1 (stereo not shown) [compound 388]
[1]
  IC50: > 42.7 µM
[2]; Hepatitis C virus, Huh-7, 72 h
  EC50: 6.35 µM

## CSc1ccc(C2Nc3ccccc3NC3=C2C(=O)CC(c2ccc4c(c2)OCO4)C3)cc1 (stereo not shown) [compound 368]
[1]
  IC50: > 42.7 µM
[2]; Hepatitis C virus, Huh-7, 72 h
  EC50: 14.9 µM

## CC1(C)CC(=O)C2=C(C1)Nc1ccccc1NC2c1cc2c(cc1[N+](=O)[O-])OCO2 (stereo not shown) [compound 505]
[1]
  IC50: > 42.7 µM
[2]; Hepatitis C virus, Huh-7, 72 h
  EC50: 13.5 µM

## CC(=O)N1c2ccccc2NC2=C(C(=O)CC(C)(C)C2)C1c1ccc(-c2cccc(C(=O)O)c2)o1 (stereo not shown) [compound 280]
[1]; [5]
  pIC50: < 4.37
[2]; [6]
  pEC50: < 4.49

## Cc1ccc(C2CC(=O)C3=C(C2)Nc2ccccc2NC3c2ccccc2F)cc1 (stereo not shown) [compound 412]
[1]
  IC50: > 33.3 µM
[2]; Hepatitis C virus, Huh-7, 72 h
  EC50: 16.7 µM

## CCCCOc1ccc(C2C3=C(CC(C)(C)CC3=O)Nc3ccccc3N2C(=O)C(F)(F)F)cc1 (stereo not shown) [compound 115]
[1]; [5]
  pIC50: < 4.37
[2]; [6]
  pEC50: 4.84

## CCN(CC)c1ccc(C2CC(=O)C3=C(C2)Nc2ccccc2NC3c2ccccc2)cc1 (stereo not shown) [compound 376]
[1]
  IC50: > 42.7 µM
[2]; Hepatitis C virus, Huh-7, 72 h
  EC50: 9.45 µM

## CC(=O)N1c2ccccc2NC2=C(C(=O)CC(C)(C)C2)[C@H]1c1ccc(OCc2ccccc2)cc1Cl (single isomer, unassigned) [compound 305]
[1]; [5]
  pIC50: 7.46
[2]; [6]
  pEC50: 5.11

## CC1CC(=O)C2=C(C1)Nc1ccccc1NC2c1ccc(Cl)cc1Cl (stereo not shown) [compound 422, 11-(2,4-dichlorophenyl)-3-methyl-2,3,4,5,10,11-hexahydro-1H-dibenzo[b,e][1,4]diazepin-1-one]
[1]
  IC50: > 133 µM
[2]; Hepatitis C virus, Huh-7, 72 h
  EC50: > 100 µM

## CCCCOc1ccc(C2CC(=O)C3=C(C2)Nc2ccccc2N(C(=O)c2ccccc2)C3c2ccccc2)cc1 (stereo not shown) [compound 167]
[1]; [3]
  pIC50: < 4.37
[2]; [4]
  pEC50: 5.49

## Cc1ccc(C2CC(=O)C3=C(C2)Nc2ccccc2N(C(=O)C(F)(F)F)C3c2cccc(Cl)c2)cc1 (stereo not shown) [compound 230]
[1]; [3]
  pIC50: < 4.48
[2]; [4]
  pEC50: 4.71

## CC1(C)CC(=O)C2=C(C1)Nc1ccccc1NC2c1ccc(OCc2ccccc2)cc1Cl (stereo not shown) [compound 443]
[1]
  IC50: 0.312 µM
[2]; Hepatitis C virus, Huh-7, 72 h
  EC50: 1.78 µM

## CCCCC(=O)N1c2ccccc2NC2=C(C(=O)CC(C)(C)C2)C1c1ccc(Cl)cc1 (stereo not shown) [compound 7]
[1]; [5]
  pIC50: < 4.37
[2]; [6]
  pEC50: 5.08

## CC1(C)CC(=O)C2=C(C1)Nc1ccccc1N(C(=O)Cc1ccc(F)cc1)C2c1cccs1 (stereo not shown) [compound 251]
[1]; [5]
  pIC50: < 4.37
[2]; [6]
  pEC50: 5.01

## O=C1C[C@@H](c2ccc3c(c2)OCO3)CC2=C1[C@H](c1cccnc1)Nc1ccccc1N2 [compound 476]
[1]
  IC50: > 42.7 µM
[2]; Hepatitis C virus, Huh-7, 72 h
  EC50: 22.9 µM

## CC1(C)CC(=O)C2=C(C1)Nc1ccccc1NC2c1c(F)cccc1Cl (stereo not shown) [compound 428]
[1]
  IC50: > 42.7 µM
[2]; Hepatitis C virus, Huh-7, 72 h
  EC50: 16 µM

## CCOc1cc(C2Nc3ccccc3NC3=C2C(=O)CC(c2ccc(OC)cc2)C3)cc(Br)c1O (stereo not shown) [compound 378]
[1]
  IC50: > 42.7 µM
[2]; Hepatitis C virus, Huh-7, 72 h
  EC50: 5.94 µM

## COc1ccc(C2CC(=O)C3=C(C2)Nc2ccccc2N(C(=O)C(F)(F)F)C3c2ccc(Cl)cc2)cc1OC (stereo not shown) [compound 226]
[1]; [3]
  pIC50: < 4.48
[2]; [4]
  pEC50: 4.79

## O=C1CC(c2ccc(Cl)cc2)CC2=C1C(c1ccccc1C(F)(F)F)Nc1ccccc1N2 (stereo not shown) [compound 349]
[1]
  IC50: > 42.7 µM
[2]; Hepatitis C virus, Huh-7, 72 h
  EC50: 2.86 µM

## COc1ccc(C2C3=C(CC(c4ccc(C)cc4)CC3=O)Nc3ccccc3N2C(=O)c2ccccc2)cc1OC (mixture of isomers) [compound 197]
[1]; [3]
  pIC50: < 4.48
[2]; [4]
  pEC50: 5.05

## CC(=O)N1c2ccccc2NC2=C(C(=O)CC(C)(C)C2)C1c1ccc(OCc2ccccc2)cc1OCc1ccccc1 (stereo not shown) [compound 144, 10-acetyl-11-[2,4-dibenzyloxyphenyl]-3,3-dimethyl-2,3,4,5,10,11-hexahydro-1H-dibenzo[b,e][1,4]diazepin-1-one]
[1]; [5]
  pIC50: 4.64
[2]; [6]
  pEC50: 5.51

## Cc1ccc(C2CC(=O)C3=C(C2)Nc2ccccc2N(C(=O)c2ccccc2)C3c2cccc(Cl)c2)cc1 (mixture of isomers) [compound 204]
[1]; [3]
  pIC50: < 4.48
[2]; [4]
  pEC50: 5.00

## CC1(C)CC(=O)C2=C(C1)Nc1ccccc1N(C(=O)c1ccccc1)C2c1ccc(Br)cc1 (stereo not shown) [compound 74]
[1]; [5]
  pIC50: < 4.37
[2]; [6]
  pEC50: < 4.57
